Test: Bioequivalence study of fixed combination versus free combination, single dose, crossover
Parameters: species or system human
Settings: in vivo
Method: Pharmacokinetic measurements were performed on blood collected from each subject. […] The PK parameters were determined in plasma, using non-compartmental methods.

intra-subject coefficient of variation (CV) for AUC0-inf of aliskiren | intra-subject coefficient of variation (CV) for AUC0-tlast of aliskiren | intra-subject coefficient of variation (CV) for Cmax of aliskiren | intra-subject CV for AUC0-flast of valsartan | intra-subject CV for AUC0-inf of valsartan | intra-subject CV for Cmax of valsartan | SMILES
33.19% | 33.98% | 51.90% |  |  |  | COCCCOc1cc(C[C@@H](C[C@H](N)[C@@H](O)C[C@H](C(=O)NCC(C)(C)C(N)=O)C(C)C)C(C)C)ccc1OC [Aliskiren, 2(S),4(S),5(S),7(S)—N-(3-amino-2,2-dimethyl-3-oxopropyl)-2,7-di(1-methylethyl)-4-hydroxy-5-amino-8-[4-methoxy-3-(3-methoxy-propoxy)phenyl]-octanamide]
 |  |  | 28.56% | 28.33% | 40.37% | CCCCC(=O)N(Cc1ccc(-c2ccccc2-c2nnn[nH]2)cc1)[C@H](C(=O)O)C(C)C [Valsartan]
